Measured values reported in patent US10271557B2, “Composition comprising a bacteriocin and an extract from a plant of the Labiatae family” (DUPONT NUTRITION BIOSCIENCES APS, priority 2003, dated 2019).

Assays:
[1] = tested on: L. monocytogenes strain S23; assay: MIC in Bioscreen after 24 h at 30° C. in laboratory medium; assay type: cell-based, Listeria monocytogenes; conditions: alone
Protocol: (§1) A 100,000 ppm GRE09 solution was prepared in water and filter sterilised (0.2 μm). Further dilutions were prepared in sterile deionised water at 1,250-20,000 ppm. Brain Heart Infusion broth (Oxoid) was prepared and GRE09 stock solutions were added to give the following test solutions of GRE09; 125, 250, 500, 750, 1000, 1250, 1500, 2000 ppm. […] A fully automated microbial growth analyser was used to determine microbial growth curves (Microbiology Reader Bioscreen C analyser linked to a PC with installed software BioLink v 5.30; Labsystem Oy, Finland). Tests were prepared in honeycomb 2 (HC 2) microtitre/cuvette plates with a capacity of 100 wells per plate. The wells were loaded with 270 μl of the prepared media and inoculated at a level of 10^3 CFU (colony forming units)/ml with 30 μl of microbial suspension. Incubation time and temperature was as appropriate for the test organism. This test allowed suitable test levels for the compounds to be determined. The rosemary extract and nisin were then tested in combination, using the same procedure. […] GRE09 solutions were prepared at 250, 500 and 1000 ppm as above. Combinations of all these test levels were prepared and tested in the Bioscreen as before.
(§2) Growth curves of Listeria monocytogenes and B. cereus strains in laboratory media were analysed as described above using the Bioscreen C analyser. […]

B. cereus Campden spores = assay: as above; assay type: cell-based, Bacillus cereus; conditions: alone
Protocol: as §1, §2

[2] = tested on: Listeria monocytogenes and B. cereus strains; assay: In vitro synergy with nisin in Bioscreen, 24 h at 30° C.; assay type: cell-based, Listeria monocytogenes; Bacillus cereus; conditions: combined with nisin
Protocol: Growth curves of Listeria monocytogenes and B. cereus strains in laboratory media were analysed as described above using the Bioscreen C analyser. Minimal inhibitory concentrations (MIC) were determined for the test compounds used singly or in combination after 24 h at 30° C. […] These had been prepared by selected extraction with either organic solvents or CO2 to obtain extracts containing 28% phenolic diterpenes (28RE; Danisco) and a rosemary extract containing 6% rosmarinic acid (6RA; Danisco).

[3] = tested on: Listeria monocytogenes strains 272, CRA3930 and NCTC12426; assay: Kill of Listeria in chicken soup at 20° C. with nisin and rosemary extract components; assay type: cell-based; conditions: FIGS. 4 and 5
Protocol: The chicken soup model was used as before. The following samples were tested: GRE09, deodorised rosemary extracts containing 28% or 70% phenolic diterpenes (RE28 and RE70; Danisco), a water soluble rosemary extract containing 6% rosmarinic acid (6RA; Danisco) and pure rosmarinic acid (RA; Sigma). Additions to the soup were made as appropriate. The soup was pasteurised (70° C./2 minutes), the pH recorded and the soup was then inoculated with a cocktail of Listeria cells prepared as described before. The tests were incubated at 20° C. and viable count enumeration performed after 0, 2, 4 and 24 h at 20° C. Initial Listeria levels were 1.3×10^5 CFU/ml. The test was repeated at two nisin levels and over different time periods. The pH of the soup without addition was pH 6.06-6.20.

MIC in Bioscreen after 24 h at 30° C., individual components [1] [% RA]	MIC in Bioscreen after 24 h at 30° C., individual components (B. cereus Campden spores) [% RA]	SMILES	effect of the substance on nisin activity (synergy) in laboratory medium [2]	synergy with nisin in achieving kill of Listeria cells [3]
1	1	O=C(/C=C/c1ccc(O)c(O)c1)O[C@H](Cc1ccc(O)c(O)c1)C(=O)O [RA, rosmarinic acid]	Enhanced nisin activity	evident but not as strong
		CC(O)CO (centres unmarked) [propylene glycol]	did not enhance nisin activity	
